The values that follow come from patent publication US8148391B2 (Cephalon, Inc., priority 2006, dated 2012).

The target of test [1] is T1, baculovirus-expressed ALK (Homo sapiens, UniProt Q9UM73).
T1 construct: host or cells: baculovirus expression system
Briefly: ALK Kinase Assay (ELISA-type, time-resolved fluorescence). It counts as biochemical. An outline of the steps: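 Wells were coated with phospholipase C-γ at 10 μg/mL in Tris-buffered saline. Adding 30 ng/ml enzyme started the reaction, which ran at 37° C for 15 minutes before Eu-N1 PT66 antibody detection. Percent inhibition versus log10 concentration gave IC50 by variable-slope fit.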
(An ELISA detects its analyte on a solid surface through an enzyme-linked reagent.)

Test [2] deals with T2, c-Met (cytoplasmic domain) (Homo sapiens, UniProt P08581).
T2 construct: 10 ng/mL c-Met (cytoplasmic domain, Invitrogen Corporation #PV3143); purchased Invitrogen Corporation PV3143
Briefly: c-Met Kinase Assay (same methods as for ALK, with modifications). It counts as biochemical. An outline of the steps:
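IC50 values were fitted by variable-slope sigmoidal regression of percent inhibition against log compound concentration. Phosphorylation was read with Eu-N1 PT66 antibody after a 15 min, 37 °C reaction. The reaction was initiated with 10 ng/mL c-Met cytoplasmic domain on wells coated with 10 μg/mL PLC-γ in TBS.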

The mark [3] stands for this setting: 1 μM ATP (Km level), 30 ng/ml ALK, 37° C., 15 minutes, read-out: ALK Activity (ALK kinase inhibition, IC50 class).
Where [4] appears, read: 1 μM ATP (Km level), 10 ng/mL c-Met, read-out: cMet Activity (c-Met kinase inhibition, IC50 class).
[5] abbreviates: ALK kinase inhibition, 1 μM ATP, read-out: ALK Activity.
Setting [6] is: c-Met kinase inhibition, 1 μM ATP, read-out: cMet Activity.
Setting [7] is: 1 μM ATP (Km level), read-out: ALK Activity (ALK Kinase Inhibition, IC50).
[8] abbreviates: 1 μM ATP (Km level), read-out: cMet Activity (c-Met Kinase Inhibition, IC50).
[9] abbreviates: ALK kinase inhibition, 1 μM ATP (Km level), read-out: ALK Activity.
Setting [10] is: c-Met kinase inhibition, 1 μM ATP (Km level), read-out: cMet Activity.

The structures appear in SMILES notation. Like-named read-outs stand apart in the source and are kept apart here.

T1 sequence (Q9UM73 19-1620): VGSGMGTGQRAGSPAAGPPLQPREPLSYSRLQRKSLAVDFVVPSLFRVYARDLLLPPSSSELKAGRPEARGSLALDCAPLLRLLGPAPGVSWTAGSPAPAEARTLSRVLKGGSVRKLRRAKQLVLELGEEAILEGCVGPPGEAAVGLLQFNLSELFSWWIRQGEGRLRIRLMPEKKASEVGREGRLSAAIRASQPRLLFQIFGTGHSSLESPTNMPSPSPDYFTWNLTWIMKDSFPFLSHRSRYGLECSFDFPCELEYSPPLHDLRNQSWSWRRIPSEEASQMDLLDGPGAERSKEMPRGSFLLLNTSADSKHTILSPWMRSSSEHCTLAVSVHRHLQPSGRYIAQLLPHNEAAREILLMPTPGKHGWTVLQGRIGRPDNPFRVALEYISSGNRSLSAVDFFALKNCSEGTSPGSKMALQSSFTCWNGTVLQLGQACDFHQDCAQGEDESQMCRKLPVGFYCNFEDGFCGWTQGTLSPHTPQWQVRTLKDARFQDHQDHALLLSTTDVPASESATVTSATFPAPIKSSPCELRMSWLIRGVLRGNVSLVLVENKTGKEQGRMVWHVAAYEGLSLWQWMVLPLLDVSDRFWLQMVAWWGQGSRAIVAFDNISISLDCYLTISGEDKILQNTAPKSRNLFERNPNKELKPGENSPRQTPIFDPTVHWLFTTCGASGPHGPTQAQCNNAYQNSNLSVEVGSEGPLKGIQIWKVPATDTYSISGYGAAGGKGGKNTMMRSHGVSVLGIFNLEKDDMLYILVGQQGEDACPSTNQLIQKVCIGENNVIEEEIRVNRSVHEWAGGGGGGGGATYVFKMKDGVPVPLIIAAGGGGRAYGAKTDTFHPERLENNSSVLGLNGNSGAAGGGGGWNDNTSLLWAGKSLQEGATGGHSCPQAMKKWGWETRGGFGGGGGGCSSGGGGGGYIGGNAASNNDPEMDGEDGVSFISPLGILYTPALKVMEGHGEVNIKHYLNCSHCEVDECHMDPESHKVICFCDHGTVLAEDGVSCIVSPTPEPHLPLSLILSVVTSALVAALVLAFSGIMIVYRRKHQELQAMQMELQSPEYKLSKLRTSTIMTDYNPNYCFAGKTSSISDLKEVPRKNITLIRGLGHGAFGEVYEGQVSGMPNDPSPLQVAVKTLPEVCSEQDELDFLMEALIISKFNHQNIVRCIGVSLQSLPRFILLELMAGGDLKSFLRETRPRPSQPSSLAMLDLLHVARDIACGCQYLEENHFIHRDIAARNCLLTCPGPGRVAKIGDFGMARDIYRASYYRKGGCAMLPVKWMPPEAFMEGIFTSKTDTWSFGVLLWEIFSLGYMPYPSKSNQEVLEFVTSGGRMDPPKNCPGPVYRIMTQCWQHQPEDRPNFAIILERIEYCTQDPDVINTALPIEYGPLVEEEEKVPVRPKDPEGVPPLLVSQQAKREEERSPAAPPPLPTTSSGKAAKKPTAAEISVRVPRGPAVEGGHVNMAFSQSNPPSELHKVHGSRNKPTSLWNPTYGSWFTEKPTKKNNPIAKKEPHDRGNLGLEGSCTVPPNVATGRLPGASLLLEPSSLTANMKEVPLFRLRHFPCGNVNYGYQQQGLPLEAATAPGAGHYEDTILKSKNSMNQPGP
T2 sequence (P08581 956-1390 limits assumed): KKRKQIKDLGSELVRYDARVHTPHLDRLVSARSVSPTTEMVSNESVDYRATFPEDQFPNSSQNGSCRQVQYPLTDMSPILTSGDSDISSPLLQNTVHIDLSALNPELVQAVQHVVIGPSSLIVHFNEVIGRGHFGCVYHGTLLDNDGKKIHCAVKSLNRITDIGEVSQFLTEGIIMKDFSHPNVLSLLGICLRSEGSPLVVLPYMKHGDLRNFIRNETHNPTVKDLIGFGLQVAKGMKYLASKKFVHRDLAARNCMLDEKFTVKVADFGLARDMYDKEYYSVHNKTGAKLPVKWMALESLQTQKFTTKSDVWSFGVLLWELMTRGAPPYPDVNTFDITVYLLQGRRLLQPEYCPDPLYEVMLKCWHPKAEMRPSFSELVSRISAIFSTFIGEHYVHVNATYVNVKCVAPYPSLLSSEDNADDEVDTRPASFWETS

As for `C#CCNC(=O)c1cccc(F)c1Nc1nc(Nc2ccc3c(c2)OCCCN3C(=O)OCCCN(C)C)ncc1Cl` [Example 1427, 3-[5-Chloro-4-(2-fluoro-6-prop-2-ynylcarbamoyl-phenylamino)-pyrimidin-2-ylamino]-7,8-dihydro-6H-5-oxa-9-aza-benzocycloheptene-9-carboxylic acid 3-dimethylamino-propyl ester], the IC50 in test [1] (setting [3]) and in test [2] (setting [4]) was 100 to 1000 nM throughout.
With `COCCN1CCc2ccc(Nc3ncc(Cl)c(Nc4c(F)cccc4OCC(=O)OC)n3)cc2CC1` [Example 1727, (2-{5-Chloro-2-[3-(2-methoxy-ethyl)-2,3,4,5-tetrahydro-1H-benzo[d]azepin-7-ylamino]-pyrimidin-4-ylamino}-3-fluoro-phenoxy)-acetic acid methyl ester], the IC50 in test [1] (setting [5]) and in test [2] (setting [6]) was 1000 to 10000 nM throughout.
Turning to `COc1cc2c(cc1Nc1ncc(Cl)c(Nc3ccccc3-n3cccn3)n1)CCN(CC(F)F)CC2` [Example 823, 5-Chloro-N*2*-[3-(2,2-difluoro-ethyl)-8-methoxy-2,3,4,5-tetrahydro-1H-benzo[d]azepin-7-yl]-N*4*-(2-pyrazol-1-yl-phenyl)-pyrimidine-2,4-diamine], the IC50 in test [1] (setting [7]) is under 100 nM; in test [2] (setting [8]) it was over 10000 nM.
As to `CCNC(=O)c1ccccc1Nc1nc(Nc2cc3c(cc2OC)CC(=O)N(CC)CC3)ncc1Cl` [Example 255, 2-[5-Chloro-2-(3-ethyl-8-methoxy-2-oxo-2,3,4,5-tetrahydro-1H-benzo[d]azepin-7-ylamino)-pyrimidin-4-ylamino]-N-ethyl-benzamide], the IC50 in test [1] (setting [9]) is under 100 nM; in test [2] (setting [10]) it was over 10000 nM.
As for `COc1cc2c(cc1Nc1ncc(C(F)(F)F)c(Nc3ccc(N4CCOCC4)cc3OC)n1)N(C)C(=O)OCC2` [Example 1518, 2-Methoxy-3-[4-(2-methoxy-4-morpholin-4-yl-phenylamino)-5-trifluoromethyl-pyrimidin-2-ylamino]-5-methyl-8,9-dihydro-5H-7-oxa-5-aza-benzocyclohepten-6-one], the results for the IC50 in test [1] (setting [5]) and in test [2] (setting [6]) were 100 to 1000 nM and 1000 to 10000 nM, respectively.
In the case of `COc1ccc(Nc2nc(Nc3cc4c(cc3OC)CCN(CC(=O)N(C)C)CC4)ncc2Cl)c(S(=O)(=O)C(C)C)c1` [Example 1162, 2-(7-{5-Chloro-4-[4-methoxy-2-(propane-2-sulfonyl)-phenylamino]-pyrimidin-2-ylamino}-8-methoxy-1,2,4,5-tetrahydro-benzo[d]azepin-3-yl)-N,N-dimethyl-acetamide], the IC50 in test [1] (setting [3]) is under 100 nM; in test [2] (setting [4]), over 10000 nM.
As to `C#CCN1CCc2ccc(Nc3ncc(Cl)c(Nc4ccccc4C(=O)NC)n3)cc2CC1` [Example 322, 2-[5-Chloro-2-(3-prop-2-ynyl-2,3,4,5-tetrahydro-1H-benzo[d]azepin-7-ylamino)-pyrimidin-4-ylamino]-N-methyl-benzamide], the IC50 in test [1] (setting [9]) and in test [2] (setting [10]) was under 100 nM throughout.
On to `COc1ccc(Nc2nc(Nc3cc4c(cc3OC)CCN(C(=O)C3COCCO3)CC4)ncc2Cl)c(-n2cccn2)c1` (stereo not drawn) [Example 633, {7-[5-Chloro-4-(4-methoxy-2-pyrazol-1-yl-phenylamino)-pyrimidin-2-ylamino]-8-methoxy-1,2,4,5-tetrahydro-benzo[d]azepin-3-yl}-[1,4]dioxan-2-yl-methanone], for which the IC50 in test [1] (setting [7]) was under 100 nM; in test [2] (setting [8]), over 10000 nM.
Consider `CNC(=O)c1ccccc1Nc1nc(Nc2c(OC)ccc3c2CCC(NCC(F)F)CC3)ncc1Cl` (stereo not drawn) [Example 1078, 2-{5-Chloro-2-[7-(2,2-difluoro-ethylamino)-2-methoxy-6,7,8,9-tetrahydro-5H-benzocyclohepten-1-ylamino]-pyrimidin-4-ylamino}-N-methyl-benzamide], for which the results for the IC50 in test [1] (setting [3]) and in test [2] (setting [4]) were 100 to 1000 nM and over 10000 nM, respectively.
`COCCN1CCc2ccc(Nc3ncc(Cl)c(Nc4ccc(N5CCOCC5)cc4OC)n3)cc2CC1` [Example 309, 5-Chloro-N*2*-[3-(2-methoxy-ethyl)-2,3,4,5-tetrahydro-1H-benzo[d]azepin-7-yl]-N*4*-(2-methoxy-4-morpholin-4-yl-phenyl)-pyrimidine-2,4-diamine]: the IC50 in test [1] (setting [9]) was under 100 nM; in test [2] (setting [10]), 100 to 1000 nM.
`CCCCNC(=O)c1ccccc1Nc1nc(Nc2cc3c(cc2OC)CCN(CCOC)CC3)ncc1Cl` [Example 1031, N-Butyl-2-{5-chloro-2-[8-methoxy-3-(2-methoxy-ethyl)-2,3,4,5-tetrahydro-1H-benzo[d]azepin-7-ylamino]-pyrimidin-4-ylamino}-benzamide]: the IC50 in test [1] (setting [3]) is under 100 nM; in test [2] (setting [4]) it was over 10000 nM.
For `CNC(=O)c1cccc(F)c1Nc1nc(Nc2ccc3c(c2)N(C(C)=O)CCCC3(C)C)ncc1Cl` [Example 1596, 2-[2-(1-Acetyl-5,5-dimethyl-2,3,4,5-tetrahydro-1H-benzo[b]azepin-8-ylamino)-5-chloro-pyrimidin-4-ylamino]-3-fluoro-N-methyl-benzamide], the IC50 was 100 to 1000 nM in test [1] (setting [5]) and under 100 nM in test [2] (setting [6]).
For `COCCNC1CCCc2c(ccc(Nc3ncc(Cl)c(N[C@H]4[C@@H](C(N)=O)[C@@H]5C=C[C@H]4C5)n3)c2OC)C1` (stereo partly drawn) [Example 956, (1S,2S,3R,4R)-3-{5-Chloro-2-[1-methoxy-6-(2-methoxy-ethylamino)-6,7,8,9-tetrahydro-5H-benzocyclohepten-2-ylamino]-pyrimidin-4-ylamino}-bicyclo[2.2.1]hept-5-ene-2-carboxylic acid amide], the IC50 is under 100 nM in test [1] (setting [7]) and over 10000 nM in test [2] (cMet Activity (c-Met Kinase Inhibition, IC50), 1 μM ATP (Km level)).
`CNC(=O)c1cccc(Nc2nc(Nc3ccc4c(c3)C(C)(C)CCC(=O)N4C)ncc2Cl)c1` [Example 670, 3-[5-Chloro-2-(1,5,5-trimethyl-2-oxo-2,3,4,5-tetrahydro-1H-benzo[b]azepin-7-ylamino)-pyrimidin-4-ylamino]-N-methyl-benzamide]: the IC50 in test [1] (setting [7]) was under 100 nM; in test [2] (setting [8]), 1000 to 10000 nM.
Turning to `CCN1CC(N2CCOCC2)COc2ccc(Nc3ncc(Cl)c(Nc4c(F)cccc4C(=O)NC)n3)cc21` (stereo not drawn) [Example 1722, 2-[5-Chloro-2-(9-ethyl-7-morpholin-4-yl-6,7,8,9-tetrahydro-5-oxa-9-aza-benzocyclohepten-2-ylamino)-pyrimidin-4-ylamino]-3-fluoro-N-methyl-benzamide], the IC50 in test [1] (setting [5]) and in test [2] (setting [6]) was under 100 nM in each case.
Turning to `CNC(=O)c1cccc(F)c1Nc1nc(Nc2ccc3c(c2)N(C(=O)CN2CCCC2)CCCO3)ncc1Cl` [Example 1704, 2-{5-Chloro-2-[9-(2-pyrrolidin-1-yl-acetyl)-6,7,8,9-tetrahydro-5-oxa-9-aza-benzocyclohepten-2-ylamino]-pyrimidin-4-ylamino}-3-fluoro-N-methyl-benzamide], the IC50 in test [1] (setting [5]) lay in the range of 1000 to 10000 nM; in test [2] (setting [6]) it was 100 to 1000 nM.
On to `COc1cc2c(cc1Nc1ncc(Cl)c(N[C@H]3[C@@H](C(N)=O)[C@@H]4C=C[C@H]3C4)n1)CCN(CC(=O)N1CCCC1)CC2` [Example 1159, (1S,2S,3R,4R)-3-{5-Chloro-2-[8-methoxy-3-(2-oxo-2-pyrrolidin-1-yl-ethyl)-2,3,4,5-tetrahydro-1H-benzo[d]azepin-7-ylamino]-pyrimidin-4-ylamino}-bicyclo[2.2.1]hept-5-ene-2-carboxylic acid amide], for which the IC50 in test [1] (setting [3]) is under 100 nM; in test [2] (setting [4]) it was over 10000 nM.
For `COc1cc2c(cc1Nc1ncc(Cl)c(Nc3ccccc3S(=O)(=O)C(C)C)n1)CCN(CC(=O)N(C)C)CC2` [Example 1151, 2-(7-{5-Chloro-4-[2-(propane-2-sulfonyl)-phenylamino]-pyrimidin-2-ylamino}-8-methoxy-1,2,4,5-tetrahydro-benzo[d]azepin-3-yl)-N,N-dimethyl-acetamide], the IC50 in test [1] (setting [3]) is under 100 nM; in test [2] (setting [4]) it was 1000 to 10000 nM.
On to `CCN1CCc2c(Nc3ncc(Cl)c(Nc4ccccc4C(=O)NC)n3)ccc(OC)c2CC1` [Example 154, 2-[5-Chloro-2-(3-ethyl-9-methoxy-2,3,4,5-tetrahydro-1H-benzo[d]azepin-6-ylamino)-pyrimidin-4-ylamino]-N-methyl-benzamide], for which the figures for the IC50 in test [1] (setting [9]) and in test [2] (setting [10]) were 100 to 1000 nM and over 10000 nM, respectively.
Consider `COc1ccc2c(c1Nc1ncc(Cl)c(Nc3ccccc3-c3nccn3C)n1)NC(=O)CCC2(C)C` [Example 998, 9-{5-Chloro-4-[2-(1-methyl-1H-imidazol-2-yl)-phenylamino]-pyrimidin-2-ylamino}-8-methoxy-5,5-dimethyl-1,3,4,5-tetrahydro-benzo[b]azepin-2-one], for which the IC50 in test [1] (setting [7]) and in test [2] (setting [8]) was over 10000 nM each time.
For the compound `CCN1C(=O)CCCc2cc(Nc3ncc(Cl)c(Nc4c(F)cccc4C(=O)NC)n3)c(OC)cc21` [Example 138, 2-[5-Chloro-2-(1-ethyl-8-methoxy-2-oxo-2,3,4,5-tetrahydro-1H-benzo[b]azepin-7-ylamino)-pyrimidin-4-ylamino]-3-fluoro-N-methyl-benzamide], the IC50 is under 100 nM in test [1] (setting [9]) and 1000 to 10000 nM in test [2] (setting [10]).
